Laboratory results published in US20140287997A1, “USE OF GROWTH HORMONE OR GROWTH HORMONE RECEPTOR AGONISTS TO PREVENT OR TREAT STRESS-SENSITIVE PSYCHIATRIC ILLNESS” (Massachusetts Institute of Technology, priority 2013, published 2014).

Tests used:
[1] = target: T1, ghrelin receptor in BLA cells (Rattus norvegicus, UniProt O08725); experiment: GH release from short-term BLA cell cultures; format: cell-based; conditions: versus vehicle, P<0.05
T1 construct: short-term cultures were generated of BLA cells and measured GH protein in the media following treatment with either MK-0677 or vehicle; endogenous in cells; host or cells: short-term primary cultures of basolateral amygdala (BLA) cells
T1 sequence (O08725 whole entry): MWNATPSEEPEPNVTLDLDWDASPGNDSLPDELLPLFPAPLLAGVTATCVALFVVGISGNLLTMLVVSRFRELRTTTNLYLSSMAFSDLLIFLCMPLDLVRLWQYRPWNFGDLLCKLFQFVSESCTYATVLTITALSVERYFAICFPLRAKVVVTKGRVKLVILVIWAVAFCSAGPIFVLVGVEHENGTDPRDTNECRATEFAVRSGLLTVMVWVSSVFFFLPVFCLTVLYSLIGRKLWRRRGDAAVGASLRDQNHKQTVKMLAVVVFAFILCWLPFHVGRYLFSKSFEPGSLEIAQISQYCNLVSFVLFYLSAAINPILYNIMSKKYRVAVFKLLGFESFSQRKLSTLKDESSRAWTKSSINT
Source text: To determine whether ghrelin receptor stimulation in amygdala triggers the release of GH as it does from the pituitary,^43 short-term cultures were generated of BLA cells and measured GH protein in the media following treatment with either MK-0677 or vehicle.

rats [2] = experiment: Forced swim as a measure of depression; format: in vivo, rat; conditions: high dose, repeated ghrelin receptor stimulation
Source text: Forced swim as a measure of depression was also examined. […] Repeated ghrelin receptor stimulation (mimicking one effect of chronic stress, which is to enhance the circulating levels of ghrelin and thus ghrelin signaling) induces depressive behaviors in rats.

[3] = test system: GH-mediated signaling in the BLA; experiment: Auditory fear conditioning after intra-BLA AAV (GHA or GFP) and 10 days systemic MK-0677 or saline; format: in vivo, rat; conditions: repeated systemic MK-0677 for 10 days
Experimental: An AAV viral construct to overexpress a mutant form of the rat GH protein (GHA) that acts as a functional antagonist to endogenous GH was generated.^49,50 Following infusion of AAV to overexpress either GHA or a control protein (GFP) (FIG. 5f), rats were permitted to recover for 5 weeks. After recovery, rats that were infused with GHA received daily injections of either the ghrelin receptor agonist MK-0677 (MK) or saline (SAL) for 10 days. […] At 24 h after the final injection, all rats were subjected to auditory fear conditioning, followed by assessment of long-term auditory fear memory in a subsequent session 48 h later.

rats [4] = experiment: Sucrose preference (measuring hedonia) as a measure of depression; format: in vivo, rat; conditions: repeated ghrelin receptor stimulation
Source text: Sucrose preference (measuring hedonia) as a measure of depression with low dose MK0677 or high dose MK0677 was also examined. […] Repeated ghrelin receptor stimulation (mimicking one effect of chronic stress, which is to enhance the circulating levels of ghrelin and thus ghrelin signaling) induces depressive behaviors in rats.

CC(C)(N)C(=O)N[C@H](COCc1ccccc1)C(=O)N1CCC2(CC1)CN(S(C)(=O)=O)c1ccccc12 [MK-0677]
GH protein released in the media [1]: significantly elevated release of GH | forced swim behaviour (rats [2]): led to immobility in the forced swim | long-term auditory fear memory [3]: fear-enhancing effects | sucrose preference (hedonia) (rats [4]; high dose): led to anhedonia | sucrose preference (hedonia) (rats [4]; low dose): led to anhedonia
